Results taken from patent US4288609A, “Quaternary ammonium derivatives of adamantane with antimicrobic activity” (priority 1976, dated 1981).
Where two headings read alike, the source gives them in different places.

Legend:
Klens. Pneum. ISM = assay: M.I.C. in vitro, gram- Klens. Pneum. (Table 1); type: cell-based; conditions: read-out: M.I.C.
Procedure, shortened: (§1)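 Inhibition of growth in broth cultures carrying a predetermined number of organisms, after addition of calculated compound quantities; incubation for 24 or 48 hours at 30° or 37° C. by organism; result expressed as M.I.C. in γ/ml.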

Diplococcus Pneum. ISM = assay: M.I.C. in vitro, gram+ Diplococcus Pneum. (Table 1); type: cell-based; conditions: read-out: M.I.C.
Procedure, shortened: as §1

[1] = test system: Candida Albicans SKF 2270; assay: Speed of sterilising action, Candida Albicans (Table 3); type: cell-based
Procedure: (§2) The strains, inoculants, culture broths and experimental methods are as already seen for calculating the M.I.C. in vitro. The antimicrobic substances were tested at concentrations of 0.1, 0.25, 0.5 and 1 g/l, the contact times taken into consideration are 0, 1, 2.5, 5, 7.5, 10, 15, 30 and 60 minutes.
(§3) The samples which at the 7th day of incubation still had no growth of micro-organisms which could be observed macroscopically and/or microscopically were considered sterile.
(§4) The results are recorded in Table 3 in terms of sterilization time expressed in minutes.

[2] = test system: gram+ and gram- bacterial strains; assay: Activity in vitro on gram+ and gram- bacteria, overall; type: cell-based; conditions: gram positive and gram negative strains, low concentrations
Procedure: The method for evaluating the activity in vitro against bacteria, fungi and protozoa consists in introducing calculated quantities of the substance, the activity of which it is desired to test, into culture media already inoculated with a predetermined number of test germs.
After 24 or 48 hours of incubation at 30° or 37° C., according to the micro-organism being tested, it is possible to evaluate the growth of the same in the culture broth; in this manner the minimum concentration (M.I.C.) which inhibits the growth of the micro-organisms in vitro is determined.
In table 1 there are recorded the M.I.C. values in γ/ml of the products subject of the present invention, against certain gram+ and gram- bacterial strains, some of which are pathogenic towards human beings.

Pseudom.Aer. ATCC 1014 = assay: M.I.C. in vitro, gram- Pseudom. Aer. (Table 1); type: cell-based, Pseudomonas Aeruginosa; conditions: Pseudomonas aeruginosa, read-out: M.I.C.
Procedure, shortened: as §1

Pseudomonas Aeruginosa = assay: Antibacterial activity in vivo with topical treatment (Table 5); design: species or system female CF1 albino mice; conditions: for animals alive on the 15th day / animals dead on the 15th day: 10 animals; for % survivors: topical, 15th day
Procedure: After their backs have been shaved, female CF1 albino mice weighing 18-22 g are scorched (under ether anaesthetic) for 15 seconds with a pad of brass previously immersed in boiling water (7-8% of the body surface). After 90 minutes there is applied to the scorched area 0.1 ml of a suspension of Pseudomonas Aeruginosa bacteria having 15% transmittance at 650 nm. The bacterial strain in question produces a high incidence of mortality, induced by septicemic diffusion from the point of infection. After 90 minutes, with the aid of a glass rod suitably flattened at one end, the preparation containing a known concentration of the compound under examination is applied locally. The treatment is continued for a total of six days (once per day). On the fifteenth day the percentage of survivors to the tested doses in recorded.
The carrier used for applying the compounds under examination is an aqueous 0.75% solution of carboxymethyl-cellulose. The concentrations of the compounds tested are 2, 1, 0.5 and 0.25% by weight.

[3] = test system: Streptococ. Henclyt. 0203; assay: M.I.C. in vitro, gram+ Streptococ. Henclyt. (Table 1); type: cell-based; conditions: read-out: M.I.C.
Procedure, shortened: as §1

[4] = test system: Trich. Vaginalis ISM 66/22; assay: MIC protozoa, Trichomonas vaginalis (Table 2); type: cell-based; conditions: Trichomonas vaginalis, +10% serum (head); Kupferberg Trichomonas broth with 5% of horse serum; read-out: MIC
Procedure, shortened: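 Test substance was added at set concentrations to Kupferberg Trichomonas broth with 5% horse serum, inoculated with T. vaginalis or T. foetus at 3.5% of medium volume. Growth was assessed after 24 or 48 h incubation at 30° or 37 °C. MIC is the minimum concentration inhibiting growth.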

[5] = test system: Nicrosporum Canis ATCC 11621; assay: MIC mildews, Microsporum canis (Table 2); type: cell-based; conditions: Microsporum canis, Sabourand broth, read-out: MIC
Staph.Aureus Tour = assay: M.I.C. in vitro, gram+ Staph. Aureus (Table 1); type: cell-based, Staphylococcus Aureus; conditions: Staphylococcus aureus, read-out: M.I.C.
Procedure, shortened: as §1

Candida Albic. SKF 2270 = assay: MIC yeasts, Candida albicans (Table 2); type: cell-based; conditions: for MIC: Candida, Sabourand broth, read-out: MIC
Procedure, shortened: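 Candida inoculum (10^3 cells/ml, from 24 h cultures at 30° C) in Sabouraud broth containing graded compound concentrations.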

Proteus Vulc. ATCC 881 = assay: M.I.C. in vitro, gram- Proteus Vulc. (Table 1); type: cell-based; conditions: read-out: M.I.C.
Procedure, shortened: as §1

[6] = test system: all the micro-organisms tested; assay: Speed of sterilising action, all micro-organisms; type: cell-based; conditions: even with a very low concentration
Procedure: as §2, §3, §4

[7] = test system: Trych. Mentagr. 1st.Pastuer; assay: MIC mildews, Trichophyton mentagrophytes (Table 2); type: cell-based; conditions: Trichophyton mentagrophytes, Sabourand broth, read-out: MIC
[8] = test system: Escherichia Coli SKF 12140; assay: Speed of sterilising action, Escherichia Coli (Table 3); type: cell-based
Procedure: as §2, §3, §4

Esch. Coli. SKF 12140 = assay: M.I.C. in vitro, gram- Esch. Coli (Table 1); type: cell-based, Escherichia Coli; conditions: Escherichia coli, read-out: M.I.C.
Procedure, shortened: as §1

SMILES: CCCCCCCCCCCC[N+](C)(C)CCOC(=O)C12CC3CC(CC(C3)C1)C2 [Example 4]
- MIC (Klens. Pneum. ISM; +10% serum): 100 µg/mL
- MIC (Klens. Pneum. ISM; without serum): 2 µg/mL
- MIC (Diplococcus Pneum. ISM; +10% serum): 5 µg/mL
- MIC (Diplococcus Pneum. ISM; without serum): 0.5 µg/mL
- sterilization time ([1]; 0.1 g/l): 30 min
- sterilization time ([1]; 0.25 g/l): 10 min
- sterilization time ([1]; 0.5 g/l): 5 min
- sterilization time ([1]; 1 g/l): 1 min
- antibacterial activity (in words) [2]: powerful antibacterial activity at low concentrations
- MIC (Pseudom.Aer. ATCC 1014; ATCC1014, +10% serum): 100 µg/mL
- MIC (Pseudom.Aer. ATCC 1014; ATCC1014, without serum): 10 µg/mL
- animals alive on the 15th day (Pseudomonas Aeruginosa; 0.25% by weight): 4
- animals dead on the 15th day (Pseudomonas Aeruginosa; 0.25% by weight): 6
- % survivors (Pseudomonas Aeruginosa; 0.25% by weight): 40%
- animals alive on the 15th day (Pseudomonas Aeruginosa; 0.5% by weight): 6
- animals dead on the 15th day (Pseudomonas Aeruginosa; 0.5% by weight): 4
- % survivors (Pseudomonas Aeruginosa; 0.5% by weight): 60%
- animals alive on the 15th day (Pseudomonas Aeruginosa; 1% by weight): 6
- animals dead on the 15th day (Pseudomonas Aeruginosa; 1% by weight): 4
- % survivors (Pseudomonas Aeruginosa; 1% by weight): 60%
- animals alive on the 15th day (Pseudomonas Aeruginosa; 2% by weight): 7
- animals dead on the 15th day (Pseudomonas Aeruginosa; 2% by weight): 3
- % survivors (Pseudomonas Aeruginosa; 2% by weight): 70%
- efficacy in vivo (in words) (Pseudomonas Aeruginosa; other concentrations considered): secure efficacy
- MIC ([3]; +10% serum): 0.3 µg/mL
- MIC ([3]; without serum): < 0.1 µg/mL
- MIC [4]: 5 µg/mL
- MIC ([5]; ATCC11621, +10% serum): 20 µg/mL
- MIC ([5]; ATCC11621, without serum): 0.1 µg/mL
- MIC (Staph.Aureus Tour; +10% serum): 5 µg/mL
- MIC (Staph.Aureus Tour; without serum): < 0.1 µg/mL
- MIC (Candida Albic. SKF 2270; +10% serum): 20 µg/mL
- MIC (Candida Albic. SKF 2270; without serum): 0.2 µg/mL
- activity on Candida albicans, times greater than that of cetyl pyridine chloride (Candida Albic. SKF 2270; in the absence of serum): about 25 times
- activity on Candida albicans, times higher than that of cetyl pyridine chloride (Candida Albic. SKF 2270; in the presence of 10% of horse serum): 5-10 times
- MIC (Proteus Vulc. ATCC 881; +10% serum): 100 µg/mL
- MIC (Proteus Vulc. ATCC 881; without serum): 2 µg/mL
- sterilising action (in words) [6]: swift sterilising action on all the micro-organisms tested
- MIC ([7]; +10% serum): 5 µg/mL
- MIC ([7]; without serum): 0.1 µg/mL
- sterilization time ([8]; 0.1 g/l): 60 min
- sterilization time ([8]; 0.25 g/l): 60 min
- sterilization time ([8]; 0.5 g/l): 30 min
- sterilization time ([8]; 1 g/l): 10 min
- MIC (Esch. Coli. SKF 12140; +10% serum): 100 µg/mL
- MIC (Esch. Coli. SKF 12140; without serum): 2 µg/mL
